# Measurements published in patent EP0745595A1, “3-(3-Aryloxyphenyl)-1-(substituted methyl)-s-triazine-2,4,6-oxo or thiotrione herbicidal agents” (American Cyanamid Company, priority 1995, dated 1996).
# Key:
# Type in all cases: in vivo
# [1] = system: ABUTILON THEOPHRASTI, MEDIC.; assay: Postemergence herbicidal evaluation, ABUTH (Velvetleaf); settings: rated four to five weeks after treatment, averaged
# Summary of the method: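 This postemergence herbicide test used two-week-old velvetleaf seedlings grown in jiffy flats. Each compound was sprayed at 40 psi as a dispersion in 50/50 acetone/water with 0.5% TWEEN®20 surfactant. Plants then received routine greenhouse care. After four to five weeks, injury was scored visually on a 0-9 scale against a control, and replicate tests were averaged.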
# [2] = system: AMBROSIA ARTEMISIIFOLIA, L.; assay: Postemergence herbicidal evaluation, AMBEL (Ragweed, Common); settings: rated four to five weeks after treatment, averaged
# Summary of the method: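 Postemergence herbicidal activity on AMBEL (common ragweed) was assessed on two-week-old seedlings grown in jiffy flats. Treatment solutions of 50/50 acetone/water with 0.5% TWEEN®20 surfactant were sprayed at 40 psi. After four to five weeks in the greenhouse, plants were scored 0-9 against a control for stand, vigor, malformation, size, chlorosis and overall appearance, with multiple tests averaged.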
# [3] = system: CASSIA OBTUSIFOLIA, L.; assay: Postemergence herbicidal evaluation, CASOB (Sicklepod); settings: rated four to five weeks after treatment, averaged
# Summary of the method: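 Each value is a 0–9 visual rating of plant appearance compared with control, recorded 4–5 weeks after a 0.125–0.500 kg/ha spray, with multiple tests averaged.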
# [4] = system: CHENOPODIUM ALBUM, L.; assay: Postemergence herbicidal evaluation, CHEAL (Lambsquarters, Common); settings: rated four to five weeks after treatment, averaged
# Summary of the method: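 Postemergence herbicidal activity on Chenopodium album was tested by spraying two-week-old seedlings grown in jiffy flats with compound in acetone/water (50/50) plus 0.5% TWEEN®20, using a 40 psi nozzle. Four to five weeks after treatment, stand, vigor, malformation, size, chlorosis and overall appearance were scored 0-9 relative to controls, with repeat tests averaged.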
# [5] = system: IPOMOEA SPP.; assay: Postemergence herbicidal evaluation, IPOSS (Morningglory spp.); settings: rated four to five weeks after treatment, averaged
# Summary of the method: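 In this greenhouse postemergence herbicide test on Ipomoea spp. (morningglory), compounds in 50/50 acetone/water with 0.5% TWEEN®20 were sprayed at 40 psi onto seedlings about two weeks old grown in jiffy flats. After four to five weeks, injury was scored on a 0-9 scale covering stand, vigor, malformation, size, chlorosis and overall appearance versus control, with repeat tests averaged.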
# [6] = system: SETARIA VIRIDIS, (L) BEAU; assay: Postemergence herbicidal evaluation, SETVI (Foxtail, Green); settings: rated four to five weeks after treatment, averaged
# Summary of the method: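 Postemergence foliar spray at approximately 0.125–0.500 kg/ha onto two-week seedlings; greenhouse hold, then 0–9 visual injury rating after 4–5 weeks.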
# [7] = system: CASSIA OBTUSIFOLIA, L.; assay: Preemergence herbicidal evaluation, CASOB (Sicklepod); settings: four to five weeks after treatment
# Description: (§1) Results of herbicide evaluation are expressed on a rating scale (0-9). The scale is based upon a visual observation of plant stand, vigor, malformation, size, chlorosis and overall plant appearance as compared with a control.
# (§2) The preemergence herbicidal activity of the test compounds of the present invention is exemplified by the following tests in which the seeds of a variety of monocotyledonous and dicotyledonous plants are separately mixed with potting soil and planted on top of approximately one inch of soil in separate pint cups. […] The treated cups are then placed on greenhouse benches, watered and cared for in accordance with conventional greenhouse procedures. From four to five weeks after treatment, the tests are terminated and each cup is examined and rated according to the rating system provided in Example 40.
# (§3) The compounds evaluated are reported by compound number given in Example 40.
# [8] = system: CHENOPODIUM ALBUM, L.; assay: Preemergence herbicidal evaluation, CHEAL (Lambsquarters, Common); settings: four to five weeks after treatment
# Summary of the method: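 Rated 0-9 by visual comparison with control (stand, vigor, malformation, size, chlorosis, overall appearance) four to five weeks after preemergence soil spray. Dose equivalent to about 0.125 to 0.50 kg per hectare, applied in aqueous acetone to freshly seeded cups kept in greenhouse.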
# [9] = system: ECHINOCHLOA CRUS-GALLI, (L) BEAU; assay: Preemergence herbicidal evaluation, ECHCG (Barnyardgrass); settings: for ECHCG rating: four to five weeks after treatment; for ECHCG herbicidal rating: rated four to five weeks after treatment
# Description: as §1, §2, §3
# [10] = system: GLYCINE MAX(L) MERR. CV. WILLIAMS; assay: Preemergence herbicidal evaluation, GLXMAW (Soybean, Williams); settings: for GLXMAW rating: four to five weeks after treatment; for GLXMAW herbicidal rating: rated four to five weeks after treatment
# Description: as §1, §2, §3
# [11] = system: ZEA MAYS L.; assay: Preemergence herbicidal evaluation, ZEAMX (Corn, Field); settings: four to five weeks after treatment
# Description: as §1, §2, §3
# [12] = system: ECHINOCHLOA ORYZOIDES (ARD.)FRITSCH; assay: Preemergence weed control under flooded paddy conditions, ECHORC (Watergrass (Calif.)); settings: for ECHORC herbicidal rating: preemergence weeds, rated three to four weeks after treatment; for Herbicidal effect rating, ECHORC: 0.500 kg/ha, preemergence, 3-4 weeks after treatment
# Protocol: as §1
# (§4) Preemergence herbicidal activity under flooded paddy conditions is determined as follows: plant seeds or propagating organs are planted in the top 0.5 cm of silt loam soil in 32 oz. plastic containers with a diameter of 10.5 cm and no drainage holes. Water is added to these containers and maintained at 1.5 to 3 cm above the soil surface for the duration of the experiment. […] The treated containers are placed on greenhouse benches and cared for according to normal greenhouse procedures.- Three to four weeks after treatment the test is terminated and each container is examined and herbicidal effect rated according to the rating system provided in Example 40. The compounds evaluated are reported by compound number given in Example 40.
# (§5) Plant species employed in this example are reported by header abbreviation, common name and scientific name.
# [13] = system: SAGITTARIA PYGMAEA, L.; assay: Preemergence weed control under flooded paddy conditions, SAGPY (Arrowhead (Pygmaea)); settings: for SAGPY herbicidal rating: preemergence weeds, rated three to four weeks after treatment; for Herbicidal effect rating, SAGPY: 0.500 kg/ha, preemergence, 3-4 weeks after treatment
# Summary of the method: (§6)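 Visual 0-9 rating against untreated control, covering stand, vigor, malformation, size and chlorosis, scored three to four weeks post-treatment in a greenhouse. Application was into 1.5-3 cm flood water over silt loam sown at 0.5 cm. The 50/50 v/v aqueous/acetone doses were about 0.5, 0.25, 0.125 and 0.063 kg/ha.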
# [14] = system: ORYZA SATIVA, L. TEBONNET; assay: Rice tolerance to post-transplant applications under flooded paddy conditions, ORYSAT (Rice, Tebonnet); settings: post-transplant rice; for ORYSAT herbicidal rating (rice tolerance): rated three to four weeks after treatment; for Herbicidal effect rating, ORYSAT: 0.500 kg/ha, 3-4 weeks after treatment;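 on ORYSAT herbicidal rating (rice tolerance): applied to flooded soil surface three days after transplanting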
# Summary of the method: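 Rated on a visual 0–9 scale against untreated plants 3–4 weeks after application, rice (cv. Tebonnet) tolerance was tested by applying compounds (approx. 0.5–0.063 kg/ha, acetone/water 50/50) to flooded soil three days post-transplant, water kept 1.5–3 cm deep.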
# [15] = system: CYPERUS IRIA; assay: Preemergence weed control under flooded paddy conditions, CYPIR (Rice Flatsedge); settings: 0.500 kg/ha, preemergence, 3-4 weeks after treatment
# Protocol: as §1, §4, §5
# [16] = system: CYPERUS SEROTINUS, ROTTB.; assay: Preemergence weed control under flooded paddy conditions, CYPSE (Flatsedge); settings: 0.500 kg/ha, preemergence, 3-4 weeks after treatment
# Summary of the method: as §6
# [17] = system: […], PRESL.; assay: Preemergence weed control under flooded paddy conditions, MOOVA (Monochoria); settings: 0.500 kg/ha, preemergence, 3-4 weeks after treatment
# Summary of the method: as §6
# [18] = system: ORYZA SATIVA, L. TEBONNET; assay: Postemergence herbicidal evaluation, ORYSAT (Rice, Tebonnet); design: key: 0-9 visual rating scale vs untreated control
# Protocol: In the tests, seedling plants are grown in jiffy flats for about two weeks. The test compounds are dispersed in 50/50 acetone/water mixtures containing 0.5% TWEEN®20, a polyoxyethylene sorbitan monolaurate surfactant of Atlas Chemical Industries, in sufficient quantities to provide the equivalent of about 0.125 kg to 0.500 kg per hectare of active compound when applied to the plants through a spray nozzle operating at 40 psi for a predetermined time. After spraying, the plants are placed on greenhouse benches and are cared for in the usual manner, commensurate with conventional greenhouse practices. From four to five weeks after treatment, the seedling plants are examined and rated according to the rating system set forth below. Where more than one test is involved for a given compound, the data are averaged.
# Plant species employed in these evaluations are reported by header abbreviation, common name and scientific name.
# as §1
smiles,measurement,setting,value
"CCOC(=O)Cn1c(=O)n(C)c(=O)n(-c2cc(Oc3c(F)cc(C(F)(F)F)cc3Cl)ccc2C#N)c1=O [Compound 11, Ethyl 3-{5-[(2-chloro-α,α,α,6-tetrafluoro-p-tolyl)oxy]-2-cyanophenyl}tetrahydro-5-methyl-2,4,6-trioxo-s-triazine-1(2H)-acetate]","ABUTH, herbicide rating (0-9)",[1]; Rate 0.125 kg/ha,9.0
same,"ABUTH, herbicide rating (0-9)",[1]; Rate 0.250 kg/ha,9.0
same,"ABUTH, herbicide rating (0-9)",[1]; Rate 0.500 kg/ha,9.0
same,"AMBEL, herbicide rating (0-9)",[2]; Rate 0.125 kg/ha,9.0
same,"AMBEL, herbicide rating (0-9)",[2]; Rate 0.250 kg/ha,9.0
same,"AMBEL, herbicide rating (0-9)",[2]; Rate 0.500 kg/ha,9.0
same,"CASOB, herbicide rating (0-9)",[3]; Rate 0.125 kg/ha,9.0
same,"CASOB, herbicide rating (0-9)",[3]; Rate 0.250 kg/ha,9.0
same,"CASOB, herbicide rating (0-9)",[3]; Rate 0.500 kg/ha,9.0
same,"CHEAL, herbicide rating (0-9)",[4]; Rate 0.125 kg/ha,9.0
same,"CHEAL, herbicide rating (0-9)",[4]; Rate 0.250 kg/ha,9.0
same,"CHEAL, herbicide rating (0-9)",[4]; Rate 0.500 kg/ha,9.0
same,"IPOSS, herbicide rating (0-9)",[5]; Rate 0.125 kg/ha,9.0
same,"IPOSS, herbicide rating (0-9)",[5]; Rate 0.250 kg/ha,9.0
same,"IPOSS, herbicide rating (0-9)",[5]; Rate 0.500 kg/ha,9.0
same,"SETVI, herbicide rating (0-9)",[6]; Rate 0.125 kg/ha,9.0
same,"SETVI, herbicide rating (0-9)",[6]; Rate 0.250 kg/ha,9.0
same,"SETVI, herbicide rating (0-9)",[6]; Rate 0.500 kg/ha,9.0
same,CASOB rating,[7]; Rate 0.125 kg/ha,0.0
same,CASOB rating,[7]; Rate 0.250 kg/ha,0.0
same,CASOB rating,[7]; Rate 0.500 kg/ha,0.0
same,CHEAL rating,[8]; Rate 0.125 kg/ha,9.0
same,CHEAL rating,[8]; Rate 0.250 kg/ha,9.0
same,CHEAL rating,[8]; Rate 0.500 kg/ha,9.0
same,ECHCG rating,[9]; Rate 0.125 kg/ha,0.0
same,ECHCG rating,[9]; Rate 0.250 kg/ha,0.0
same,ECHCG rating,[9]; Rate 0.500 kg/ha,0.0
same,GLXMAW rating,[10]; Rate 0.125 kg/ha,0.0
same,GLXMAW rating,[10]; Rate 0.250 kg/ha,0.0
same,GLXMAW rating,[10]; Rate 0.500 kg/ha,0.0
same,ZEAMX rating,[11]; Rate 0.125 kg/ha,0.0
same,ZEAMX rating,[11]; Rate 0.250 kg/ha,0.0
same,ZEAMX rating,[11]; Rate 0.500 kg/ha,0.0
same,ECHORC herbicidal rating,[12]; Rate 0.063 kg/ha,9.0
same,ECHORC herbicidal rating,[12]; Rate 0.125 kg/ha,9.0
same,ECHORC herbicidal rating,[12]; Rate 0.250 kg/ha,9.0
same,ECHORC herbicidal rating,[12]; Rate 0.500 kg/ha,9.0
same,SAGPY herbicidal rating,[13]; Rate 0.063 kg/ha,0.0
same,SAGPY herbicidal rating,[13]; Rate 0.125 kg/ha,0.0
same,SAGPY herbicidal rating,[13]; Rate 0.250 kg/ha,0.0
same,SAGPY herbicidal rating,[13]; Rate 0.500 kg/ha,0.0
same,ORYSAT herbicidal rating (rice tolerance),[14]; Rate 0.063 kg/ha,0.0
same,ORYSAT herbicidal rating (rice tolerance),[14]; Rate 0.125 kg/ha,0.0
same,ORYSAT herbicidal rating (rice tolerance),[14]; Rate 0.250 kg/ha,1.0
same,ORYSAT herbicidal rating (rice tolerance),[14]; Rate 0.500 kg/ha,1.0
"COC(=O)Cn1c(=O)n(C)c(=O)n(-c2cc(Oc3cc(OC)c(Cl)cc3Cl)ccc2[N+](=O)[O-])c1=O [Compound 29, Methyl 3-[5-(2,4-dichloro-5-methoxyphenoxy)-2-nitrophenyl]tetrahydro-5-methyl-2,4,6-trioxo-s-triazine-1(2H)-acetate]",ECHCG herbicidal rating,[9]; Rate 0.125 kg/ha,0.0
same,ECHCG herbicidal rating,[9]; Rate 0.250 kg/ha,0.0
same,ECHCG herbicidal rating,[9]; Rate 0.500 kg/ha,0.0
same,GLXMAW herbicidal rating,[10]; Rate 0.125 kg/ha,0.0
same,GLXMAW herbicidal rating,[10]; Rate 0.250 kg/ha,0.0
same,GLXMAW herbicidal rating,[10]; Rate 0.500 kg/ha,0.0
same,"Herbicidal effect rating, ECHORC",[12],0.0
same,"Herbicidal effect rating, CYPIR",[15],0.0
same,"Herbicidal effect rating, CYPSE",[16],0.0
same,"Herbicidal effect rating, MOOVA",[17],0.0
same,"Herbicidal effect rating, SAGPY",[13],0.0
same,"Herbicidal effect rating, ORYSAT",[14],0.0
COC(=O)Cn1c(=O)n(C)c(=O)n(-c2cc(Oc3cc(F)c(F)cc3F)ccc2[N+](=O)[O-])c1=O [Compound 30],ORYSAT rating,[18]; Rate 0.125 kg/ha,3.0
same,ORYSAT rating,[18]; Rate 0.250 kg/ha,3.0
same,ORYSAT rating,[18]; Rate 0.500 kg/ha,3.0
same,"Herbicidal effect rating, ECHORC",[12],0.0
same,"Herbicidal effect rating, CYPIR",[15],0.0
same,"Herbicidal effect rating, CYPSE",[16],0.0
same,"Herbicidal effect rating, MOOVA",[17],0.0
same,"Herbicidal effect rating, SAGPY",[13],0.0
same,"Herbicidal effect rating, ORYSAT",[14],1.0
